Experimental data as given in PMC4991273 (2016).

What was measured:
[1] = test system: PDGF-A (DNA, G4) GGAGGCGGGGGGGGGGGGGCGGGGGCGGGGGCGGGGGAGGGGCGCGGC; test: fluorescence enhancement and lifetime (TCSPC); settings: K+ 100 mM (DNA annealed in 25 mM KCl); 10 mM lithium cacodylate, pH 7.3; 2 μM compound
[2] = test system: ds17 (DNA, duplex) CCAGTTCGTAGTAACCC/GGGTTACTACGAACTGG; test: fluorescence enhancement and lifetime (TCSPC); settings: K+ 100 mM; 10 mM lithium cacodylate, pH 7.3; 2 μM compound
[3] = test system: ss17 (DNA, single strand) CCAGTTCGTAGTAACCC; test: fluorescence enhancement and lifetime (TCSPC); settings: K+ 100 mM; 10 mM lithium cacodylate, pH 7.3; 2 μM compound
[4] = test system: TBA (DNA, G4) GGTTGGTGTGGTTGG; test: fluorescence enhancement and lifetime (TCSPC); settings: K+ 100 mM; 10 mM lithium cacodylate, pH 7.3; 2 μM compound
[5] = test system: myc2345 (DNA, G4) TGAGGGTGGGGAGGGTGGGGAA; test: fluorescence enhancement and lifetime (TCSPC); settings: K+ 100 mM; 10 mM lithium cacodylate, pH 7.3; 2 μM compound
[6] = test system: PDGF-A (DNA, G4) GGAGGCGGGGGGGGGGGGGCGGGGGCGGGGGCGGGGGAGGGGCGCGGC; test: fluorescence emission titration; settings: K+ 100 mM (DNA annealed in 25 mM KCl); 10 mM lithium cacodylate, pH 7.3; 2 μM compound
[7] = test system: myc2345 (DNA, G4) TGAGGGTGGGGAGGGTGGGGAA; test: fluorescence emission titration; settings: K+ 100 mM; 10 mM lithium cacodylate, pH 7.3; 2 μM compound; per motif (2 compounds per G-quadruplex); per site
[8] = test system: ds17 (DNA, duplex) CCAGTTCGTAGTAACCC/GGGTTACTACGAACTGG; test: fluorescence emission titration; settings: K+ 100 mM; 10 mM lithium cacodylate, pH 7.3; 2 μM compound; per motif (2 compounds per 5 base pairs); per site
[9] = test system: ss17 (DNA, single strand) CCAGTTCGTAGTAACCC; test: fluorescence emission titration; settings: K+ 100 mM; 10 mM lithium cacodylate, pH 7.3; 2 μM compound; per motif of 5 bases; per site
[10] = test system: TBA (DNA, G4) GGTTGGTGTGGTTGG; test: fluorescence emission titration; settings: K+ 100 mM; 10 mM lithium cacodylate, pH 7.3; 2 μM compound; per site

## c1cc2oc3cccc4c3c3c5c(cccc5[n+]4CCN4CCOCC4)n(CCN4CCOCC4)c(c1)c2-3
[1]
  binding: yes
[2]
  binding: yes
[3]
  binding: yes
[4]
  binding: yes
[5]
  binding: yes

## CCCn1c2cccc3oc4cccc5c4c(c4c1cccc4[n+]5CCC)-c32
[6]
  K a: 1.6 ± 1.5 × 10^6 M^-1
[7]
  K a: 8.4 ± 2.9 × 10^5 M^-1
[8]
  K a: 2.1 ± 0.3 × 10^6 M^-1
[9]
  K a: 1.0 ± 0.2 × 10^6 M^-1
[10]
  K a: 1.2 ± 0.4 × 10^6 M^-1
